In patent US7893061B2, “Alkyne-substituted pyridone compounds and methods of use” (Amgen Inc., priority 2006, dated 2011):

Target: T1, c-KIT kinase enzyme (Homo sapiens, UniProt P10721)
T1 construct: cKIT (6.25 μM) (catalytic domain, N-terminal GST tagged, unphosphorylated)
Assay: cKIT Homogeneous Time Resolved Fluorescent (HTRF) kinase assay
Type: biochemical
Conditions: inhibition of the c-KIT kinase enzyme
Description: cKIT-Homogeneous Time Resolved Fluorescent (HTRF) Kinase Assay:
The purpose of this assay is to measure the inhibition of cKIT enzyme activity (autophosphorylation and phosphorylation of substrate) by small molecule test compounds. The cKIT HTRF assay begins with cKIT-catalyzed phosphorylation of biotinylated peptide Her-2 (N-GGMEDIYFEFMGGKKK-C) (SEQ ID 001) in the presence of ATP. The cKIT enzyme reaction is comprised of 1 μL of compound in 100% DMSO, 15 μL of 2× substrate mix (50 μM ATP and 2 μM biotinylated Her-2) and 15 μL of 2× cKIT (6.25 μM) (catalytic domain, N-terminal GST tagged, unphosphorylated) in 4 mM DTT all diluted in enzyme buffer (25 mM HEPES pH 7.5, 12.5 mM NaCl, 50 mM MgCl, 0.05% BSA). The reaction incubates for 90 min at RT. 160 Microliters of detection mixture containing 0.47 μg/mL steptavidin allophycocyanin and 29.7 pM europylatedanti-phosphotyrosine Ab (PT66, Perkin Elmer) in HTRF buffer (100 mM Hepes pH 7.5, 100 mM NaCl, 0.1% BSA, 0.05% Tween 20) is then added to stop the reaction, by diluting out the enzyme as well as to enable quantitation of phosphorylated Her-2. After 3 h at RT, the detection reaction is read in a Packard Discovery™ (model BD1000) plate reader. The wells are excited with coherent […] light and the ratio of delayed ([…] post excitation) emissions at […] (native europium fluorescence) and 665 nm (europium fluorescence transferred to allophycocyanin—an index of substrate phosphorylation) is determined. The proportion of substrate phosphorylated in the kinase reaction in the presence of compound compared with that phosphorylated in the presence of DMSO vehicle alone (HI control) is calculated using the formula:
% control (POC)=(cpd−average LO)/(average HI−average LO)*100. Data (consisting of POC and inhibitor concentration in μM) is fitted to a 4-parameter equation (y=A+((B−A)/(1+((x/C)^D))), where A is the minimum y (POC) value, B is the maximum y (POC), C is the x (compound concentration) at the point of inflection and D is the slope factor) using a Levenburg-Marquardt non-linear regression algorithm.

T1 sequence (P10721 589-937 limits assumed): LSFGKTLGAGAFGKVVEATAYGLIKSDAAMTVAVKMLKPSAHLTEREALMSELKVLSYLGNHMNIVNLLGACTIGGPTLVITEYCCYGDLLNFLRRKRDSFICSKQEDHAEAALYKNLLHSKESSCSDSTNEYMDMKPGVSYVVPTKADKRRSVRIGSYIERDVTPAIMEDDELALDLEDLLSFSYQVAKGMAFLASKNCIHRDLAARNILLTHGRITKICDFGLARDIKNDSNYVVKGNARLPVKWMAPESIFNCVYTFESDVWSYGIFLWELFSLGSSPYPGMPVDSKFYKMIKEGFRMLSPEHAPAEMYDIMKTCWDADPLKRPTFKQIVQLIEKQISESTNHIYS

SMILES	IC50 [nM]
Cc1ccn(-c2cccc(C(F)(F)F)c2)c(=O)c1C#Cc1cnc(N)nc1 [Example 4, 3-((2-amino-5-pyrimidinyl)ethynyl)-4-methyl-1-(3-(trifluoromethyl)phenyl)-2(1H)-pyridinone]	≤ 100
Cc1ccn(-c2ccc3c(c2)NCC3(C)C)c(=O)c1C#Cc1cnc(N)nc1 [Example 6, 3-((2-amino-5-pyrimidinyl)ethynyl)-1-(3,3-dimethyl-2,3-dihydro-1H-indol-6-yl)-4-methyl-2(1H)-pyridinone]	≤ 10
Cc1ccc(-n2ccc(C)c(C#Cc3cnc(N)nc3)c2=O)cc1C [Example 7, 3-((2-amino-5-pyrimidinyl)ethynyl)-1-(3,4-dimethylphenyl)-4-methyl-2(1H)-pyridinone]	≤ 10
CC(=O)N1CC(C)(C)c2ccc(-n3ccc(C)c(C#Cc4cnc(N)nc4)c3=O)cc21 [Example 8, 1-(1-acetyl-3,3-dimethyl-2,3-dihydro-1H-indol-6-yl)-3-((2-amino-5-pyrimidinyl)ethynyl)-4-methyl-2(1H)-pyridinone]	≤ 20
Cc1ccn(-c2ccc3c(c2)CCO3)c(=O)c1C#Cc1cnc(N)nc1 [Example 9, 3-((2-amino-5-pyrimidinyl)ethynyl)-1-(2,3-dihydro-1-benzofuran-5-yl)-4-methyl-2(1H)-pyridinone]	≤ 100
Cc1ccn(-c2cccc(OC(F)(F)F)c2)c(=O)c1C#Cc1cnc(N)nc1 [Example 10, 3-((2-amino-5-pyrimidinyl)ethynyl)-4-methyl-1-(3-((trifluoromethyl)oxy)phenyl)-2(1H)-pyridinone]	≤ 100
